Experimental data taken from US11873298B2, “Compounds and uses thereof” (JANSSEN PHARMACEUTICA NV, priority 2017, dated 2024).

Molecular target: T1, SCD5 (Homo sapiens, UniProt Q86SK9)
T1 construct: host or cells: S. cerevisiae ole1Δ strain (W303 pdr1Δ pdr3Δ background), plasmid pRS316 with TDH3 promoter and CYC1 terminator
T1 sequence (Q86SK9 1-330): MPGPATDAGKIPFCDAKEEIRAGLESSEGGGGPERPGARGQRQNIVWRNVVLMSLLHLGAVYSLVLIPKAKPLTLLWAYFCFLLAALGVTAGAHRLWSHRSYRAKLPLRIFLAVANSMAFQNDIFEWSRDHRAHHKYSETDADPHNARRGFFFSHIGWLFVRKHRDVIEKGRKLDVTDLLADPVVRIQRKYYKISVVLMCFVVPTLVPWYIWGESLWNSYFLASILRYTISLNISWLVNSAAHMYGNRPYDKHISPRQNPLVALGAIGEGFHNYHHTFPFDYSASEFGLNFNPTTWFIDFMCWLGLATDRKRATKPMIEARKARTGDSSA
Test: Growth inhibition of humanized yeast strain expressing SCD5 as sole desaturase
Type: cell-based
Settings: humanized yeast strain expressing SCD5
Procedure: Strain oleΔ (yeast ole1 deletion mutant) was constructed by deleting OLE1 with NAT-MX6 in BY4741, amplifying the deletion cassette from the genomic DNA of the resulting strain with primers flanking the ORF by 1000 bp upstream and downstream, transforming the resulting deletion cassette into W303 pdr1Δ pdr3Δ, and plating transformants on YPD media containing G418 (200 μg/mL) and nourseothricin ([…]) with 0.01% TWEEN®-20 and 0.5 mM oleic and palmitoleic acids.
The coding sequence of yeast OLE1 was also cloned into this plasmid). These clones were then transformed into the ole1Δ strain and plated on CSM-Ura media (CSM lacking uracil) with 2% glucose (w/v) and independent colonies were isolated and amplified.
All compound profiling experiments were performed using the same basic protocol. Different genetic backgrounds (e.g., gene deletions) or conditions (e.g., addition of oleic and palmitoleic acid) were replaced as indicated below.
Yeast were cultured using standard techniques in complete synthetic media (CSM) and yeast nitrogen base supplemented with 2% (w/v) carbon source (glucose, raffinose, or galactose) to regulate the expression of the toxic disease protein. An initial starter culture was inoculated in 3 mL CSM-Glucose media and incubated overnight in a 30° C. shaker incubator (225 rpm). Saturated morning cultures were then diluted 1:20 in fresh CSM-Raffinose media and grown for 6 h to an OD600 (optical density) of ˜0.4-0.8 at 30° C. with shaking.
Compound administration was performed in two separate steps. First, 15 μL of CSM-Galactose (induces expression of toxic protein) was dispensed into clear 384 well assay plates using a MULTIDROP™ Combi reagent dispenser. […] The cultures described above were then diluted to a 2× concentration (0.03 and 0.08 for alpha-synuclein and ApoE, final ODsoo of 0.015 and 0.04) in CSM-Galactose. For wild-type and Ole1/SCD1/SCD5 plasmid-containing strains, the 2× cell density was 0.02. […] For 96-well assays (FIGS. 1A and 1B), compound dilutions in DMSO were generated in 96 well plates and 1 μL was manually pipetted into 96 well clear bottom assay plates.
For experiments using a plasmid-borne copy of Ole1, SCD1, or SCD5 (FIGS. 3B, 6, and 7), media lacking uracil (SX-Ura, where X is glucose, raffinose, or galactose), was used for all steps of the compound profiling protocol to ensure its maintenance throughout the assay.
After yeast delivery, assay plates were incubated under humidified conditions at 30° C. for 24 to 40 h. ApoE4 rescue experiments were stopped at 24 h, aSyn experiments at 40 h, Ole1 at 24 h, and SCD1/SCD5 at 40 h. The growth of yeast was monitored by reading the ODsoo of each well using a microplate reader (Perkin Elmer EnVision™).

| Compound | IC50 [µM] |
| --- | --- |
| CC(C)n1ncc2ccc(-c3noc(N4CCN(C(=O)CC5(C)CC5)CC4)n3)cc21 [Compound 495] | 1.92 |
| CC(C)n1ncc2ccc(-c3noc(N4C[C@H]5CN(C(=O)CC(C)(C)C)C[C@H]5C4)n3)cc21 [Compound 497] | 11.3 |
| CC(C)n1ncc2ccc(-c3noc([C@@H]4[C@@H]5CN(C(=O)OC(C)(C)C)C[C@@H]54)n3)cc21 [Compound 498] | > 45 |
| CC(C)n1ncc2ccc(-c3nc(C4CCN(C(=O)c5ccccn5)CC4)no3)cc21 [Compound 499] | 1.1 |
| Cc1nn(C)c2cc(-c3noc(C4CCN(C(=O)CC5CN(C(=O)OC(C)(C)C)C5)CC4)n3)ccc12 [Compound 502] | 38.9 |
| Cc1nn(C)c2cc(-c3nsc(C4CCN(C(=O)OC(C)(C)C)CC4)n3)ccc12 [Compound 503] | 0.316 |
| CC(C)n1ncc2ccc(-c3nc(C4CCN(C(=O)c5ccc(Cl)cc5)CC4)no3)cc21 [Compound 505] | 0.669 |
| CC(C)n1ncc2ccc(-c3nc(C4CCN(C(=O)c5cccc(F)c5)CC4)no3)cc21 [Compound 506] | 0.81 |
| CC(C)OC(=O)N1CCC(c2nc(-c3ccc4oc(=O)n(C(C)C)c4c3)no2)CC1 [Compound 507] | 2.44 |
| CC(C)n1ncc2ccc(-c3noc(C4=C(F)CN(C(=O)OC(C)(C)C)CC4)n3)cc21 [Compound 510] | 4.16 |
| CC(C)n1ncc2ccc(-c3noc(C4CCN(C(=O)[C@@H]5CC(=O)N(c6cccc(C#N)c6)C5)CC4)n3)cc21 [Compound 528] | > 45 |
| CC(C)n1ncc2ccc(-c3noc(C4CCN(C(=O)[C@H]5CC(=O)N(c6cccc(C#N)c6)C5)CC4)n3)cc21 [Compound 529] | > 45 |
| CC(C)n1ncc2ccc(-c3noc(N4C[C@@H]5CNC[C@H]5C4)n3)cc21 [Compound 530] | > 45 |
| CC(C)n1ncc2ccc(-c3noc(C4CCN(C(=O)c5ccccc5F)CC4)n3)cc21 [Compound 532] | 2.15 |
| CC(C)n1ncc2ccc(-c3noc(C4CCN(C(=O)c5ccc(Cl)cc5F)CC4)n3)cc21 [Compound 533] | 3.33 |
| CC(C)n1ncc2ccc(N3CC4(CCN(C(=O)c5ccccc5Cl)CC4)C3)cc21 [Compound 534] | 36.8 |
| CC(=O)N[C@H]1CC[C@H](c2nc(-c3ccc4cnn(C(C)C)c4c3)no2)CC1 [Compound 535] | > 45 |
| CC(C)n1ncc2ccc(-c3noc([C@H]4CC[C@@H](N)CC4)n3)cc21 [Compound 536] | > 45 |
| CC(C)n1ncc2ccc(-c3noc([C@H]4CC[C@H](NC(=O)OC(C)(C)C)CC4)n3)cc21 [Compound 537] | > 45 |
| CC(C)n1ncc2ccc(N3CC4(CCNCC4)C3)cc21 [Compound 538] | > 45 |

| Compound | IC50 [µM] |
| --- | --- |
| COc1ccc(S(=O)(=O)N2CCC(c3nc(-c4ccc5cnn(C(C)C)c5c4)no3)CC2)c(Br)c1 [Compound 539] | > 45 |
| CC(C)n1ncc2ccc(-c3noc(C4CCN(S(=O)(=O)c5ccccc5Cl)CC4)n3)cc21 [Compound 540] | > 45 |
| CC(C)n1ncc2ccc(-c3noc(C4CCN(C(=O)c5ccc(Cl)c(F)c5)CC4)n3)cc21 [Compound 541] | > 45 |
| CC(C)n1ncc2ccc(-c3noc(C4CCN(C(=O)c5ccc(F)cc5)CC4)n3)cc21 [Compound 544] | 10 |
| Cn1ncc2ccc(-c3noc(N4CCN(C(=O)OC(C)(C)C)CC4)n3)cc21 [Compound 545] | 18.9 |
| CC(C)n1ncc2ccc(-c3nc(C4CCN(C(=O)CC5(C)CC5)CC4)no3)cc21 [Compound 546] | 0.019 |
| CC(C)n1ncc2ccc(-c3nc(N4CCN(C(=O)OC(C)(C)C)CC4)no3)cc21 [Compound 548] | 0.01 |
| CC(C)n1ncc2ccc(-c3noc(C4CCN(C(=O)c5nccs5)CC4)n3)cc21 [Compound 549] | 1.21 |
| COC(=O)N[C@H]1CC[C@@H](c2nc(-c3ccc4c(C)nn(C)c4c3)no2)CC1 [Compound 550] | > 45 |
| CC(C)n1ncc2ccc(-c3noc(N4CC5(CCN(C(=O)OC(C)(C)C)CC5)C4)n3)cc21 [Compound 555] | > 45 |
| CC(C)n1ncc2ccc(-c3noc(C4CCN(C(=O)CNC(=O)c5cccc(C#N)c5)CC4)n3)cc21 [Compound 556] | > 45 |
| O=C(CC1CC1)N1CCC(c2nc(-c3ccc4cnn(C5COC5)c4c3)no2)CC1 [Compound 558] | 1.07 |
| CC1(CC(=O)N2CCC(c3nc(-c4ccc5cnn(C6COC6)c5c4)no3)CC2)CC1 [Compound 559] | 1.19 |
| CCc1cnc(N2CCC(c3nc(-c4ccc5c(C)nn(C)c5c4)no3)CC2)cn1 [Compound 560] | > 45 |
| COC(=O)N1CCC(c2nc(-c3ccc4cnn(C(F)F)c4c3)no2)CC1 [Compound 561] | 29.4 |
| O=C(c1ccccc1Cl)N1CCC(c2nc(-c3ccc4cnn(C5COC5)c4c3)no2)CC1 [Compound 562] | 1.5 |
| O=C(c1ccccc1)N1CCC(c2nc(-c3ccc4cnn(C5COC5)c4c3)no2)CC1 [Compound 564] | 4.23 |
| CC(C)CS(=O)(=O)N1CCC(c2nc(-c3ccc4cnn(C(C)C)c4c3)no2)CC1 [Compound 565] | > 45 |
| COC(=O)N1C[C@H]2CN(c3nc(-c4ccc5cnn(C(C)C)c5c4)no3)C[C@@H]2C1 [Compound 568] | > 45 |
| CC(C)n1ncc2ccc(-c3noc(N4C[C@@H]5CN(C(=O)CC(C)(C)C)C[C@H]5C4)n3)cc21 [Compound 569] | > 45 |

| Compound | IC50 [µM] |
| --- | --- |
| COC(=O)N1CCC2(CC1)CN(c1nc(-c3ccc4cnn(C(C)C)c4c3)no1)C2 [Compound 570] | 26.3 |
| CC(=O)N1CCC2(CC1)CN(c1nc(-c3ccc4cnn(C(C)C)c4c3)no1)C2 [Compound 571] | > 45 |
| CC(C)N1C(=O)CCc2ccc(-c3noc(C4CCN(C(=O)OC(C)(C)C)CC4)n3)cc21 [Compound 572] | 15 |
| CC(C)n1ncc2ccc(-c3noc(C4CCN(C(=O)c5cscn5)CC4)n3)cc21 [Compound 573] | 5.6 |
| CC(C)n1ncc2ccc(-c3noc(C4CCN(C(=O)c5cccs5)CC4)n3)cc21 [Compound 574] | 2.28 |
| CC(C)n1ncc2ccc(-c3noc(C4CCN(C(=O)c5ccsc5Cl)CC4)n3)cc21 [Compound 575] | 4.68 |
| CC1(OC(=O)N2CCC(c3nc(-c4ccc5cnn(C6COC6)c5c4)no3)CC2)CC1 [Compound 576] | 0.028 |
| Cc1nn(C)c2cc(-c3noc([C@@H]4CCN(C(=O)CNC(=O)c5ccccc5)CC4(F)F)n3)ccc12 [Compound 577] | > 45 |
| Cc1nn(C)c2cc(-c3noc(C4CCN(c5nc(C(C)C)no5)CC4)n3)ccc12 [Compound 581] | > 45 |
| CC(C)n1ncc2ccc(-c3nc(N4CCN(C(=O)c5ccccc5)CC4)no3)cc21 [Compound 582] | 0.176 |
| CC(C)n1ncc2ccc(-c3noc(C4CCN(C(=O)c5ccc(Cl)cn5)CC4)n3)cc21 [Compound 586] | 3.77 |
| CC(C)n1ncc2ccc(-c3noc(C4CCN(C(=O)c5ncccc5Cl)CC4)n3)cc21 [Compound 587] | 4.92 |
| CC(C)n1ncc2ccc(-c3noc(C4CCN(C(=O)c5ccsn5)CC4)n3)cc21 [Compound 588] | 1.86 |
| CC(C)n1ncc2ccc(-c3noc(C4CCN(C(=O)c5ncc(Cl)s5)CC4)n3)cc21 [Compound 589] | 0.356 |
| Cc1noc2cc(-c3noc(C4CCN(C(=O)OC5(C)CC5)CC4)n3)ccc12 [Compound 590] | > 45 |
| Cc1noc2cc(-c3noc(C4CCN(C(=O)CC5(C)CC5)CC4)n3)ccc12 [Compound 591] | > 45 |
| Cc1nn(C)c2cc(-c3noc(C4CCN(C(=O)CC5COC5)CC4)n3)ccc12 [Compound 592] | > 45 |
| CC(C)n1ncc2ccc(-c3noc(N4CCN(C(=O)OCC(F)(F)F)CC4)n3)cc21 [Compound 593] | > 45 |
| CC(C)n1ncc2ccc(N3CC4(CCN(C(=O)OC5CC5)CC4)C3)cc21 [Compound 594] | 11.8 |
